Several values for one entry are separate records, joined by “and”; a condition that tells them apart may be missing. Equal values may be shown once. Read-outs that look alike come from different tables or passages of the source.
Columns and labels:
[1] = test system: Abutilon theophrasti (velvetleaf, ABUTH); test: Greenhouse trial, % visual weed control; assay type: in vivo; conditions: 14DAA
Method: (§1) Greenhouse trials were conducted under controlled environment greenhouse conditions, with plants grown in pots with Metromix soil and bottom watered. Treatments were applied with 3 replicates per treatment, using a track sprayer with 2 flat fan nozzles at 40 pounds per square inch (PSI). Water was used as the diluent at 140 liters per hectare (L/ha), with weeds being 2-4 leaf stage and approximately 3 inches in height at treatment.

[2] = test system: Ambrosia artemisiifolia (common ragweed, AMBEL); test: Greenhouse trial, % visual weed control; assay type: in vivo; conditions: 14DAA, 100 g ae/ha alone
Method: as §1

[3] = test system: Chenopodium album (common lambsquarter, CHEAL); test: Greenhouse trial, % visual weed control; assay type: in vivo; conditions: 14DAA
Method: as §1

[4] = test system: Elymus repens (quackgrass, AGRRE); test: Greenhouse trial, % visual weed control; assay type: in vivo; conditions: 14DAA, 200 g ae/ha alone
Method: as §1

[5] = test system: Conyza bonariensis (hairy fleabane, ERIBO); conditions: field trial
Method: (§2) Field trials were conducted under normal field conditions in multiple states in the United States, including but not limited to Alabama, Mississipi, South Carolina and Tennessee; and in Brazil, including but not limited to the states of Goias, Mato Grosso, Parana, Rio Grande do Sul, and Sao Paulo. Trials were established as RCB (randomized complete block) design, with 3-4 replicates per treatment, and plot sizes varying from 2-3 meters (m) wide by 4-8 m long. Treatments were applied with small plot backpack sprayers, using pressurized carbon dioxide (CO2) as propellant. Pressure varied from 22-40 PSI, with spray tips typically of a Flat Fan type applying water diluent at 150 L/ha. Boom sizes varied from 2-3 m in width. Treatments were applied to soybean, cotton or fallow crop land. Weed sizes varied, but all treatments were applied as post-emergence treatments to weeds from 2 leaf to 2 tiller growth stages varying from 2-15 inches (in) in height. No additional adjuvant was mixed with the treatments applied in the field
(§3) The treated plots and control plots were rated blind at various intervals after application.
(§4) Colby's equation was used to determine the herbicidal effects expected from the mixtures (Colby, S. R. Calculation of the synergistic and antagonistic response of herbicide combinations. Weeds 1967 15, 20-22). A t-test (alpha=0.05) between Colby predictions and observed combinations was used to test for significant differences indicating synergy or antagonism.
(§5) The following equation was used to calculate the expected activity of mixtures containing two active ingredients, A and B:
(§6) Expected=A+B−(A×B/100) • A=observed efficacy of active ingredient A at the same concentration as used in the mixture; • B=observed efficacy of active ingredient B at the same concentration as used in the mixture.

[6] = test system: Conyza canadensis (horseweed, ERICA); conditions: field trial
Method: as §2, §3, §4, §5, §6

[7] = test system: Ipomoea quamoclit (cypress vine morningglory, IPOQU); conditions: 7DAA, field trial, 1065 g ae/ha alone
Method: as §2, §3, §4, §5, §6

[8] = test system: Amaranthus palmeri (Palmer pigweed, AMAPA); test: Field trial, % visual weed control; assay type: in vivo
From the text: (§7) Boom sizes varied from 2-3 m in width.

[9] = test system: Brachiaria decumbens (Surinam grass, BRADC); test: Field trial, % visual weed control; assay type: in vivo; conditions: 12DAA, 684 g ae/ha alone
From the text: as §7

[10] = test system: Commelina benghalensis (hairy wandering Jew, COMBE); test: Field trial, % visual weed control; assay type: in vivo; conditions: 780 g ae/ha alone
From the text: as §7

[11] = test system: Euphorbia heterophylla (wild poinsettia, EPHHL); test: Field trial, % visual weed control; assay type: in vivo; conditions: 28DAA, 585 g ae/ha alone
From the text: as §7

[12] = test system: Euphorbia hirta (garden spurge, EPHHI); test: Field trial, % visual weed control; assay type: in vivo
From the text: as §7

[13] = test system: Glycine max (soybean, glyphosate tolerant, GLXMA); test: Field trial, % visual weed control; assay type: in vivo
From the text: as §7

[14] = test system: Ipomoea grandifolia (Corda-de-viola, IAQGR); test: Field trial, % visual weed control; assay type: in vivo; conditions: 17DAA, 780 g ae/ha alone
From the text: as §7

[15] = test system: Ipomoea species (morningglory, IPOSS); test: Field trial, % visual weed control; assay type: in vivo; conditions: 8DAA, 800 g ae/ha alone
From the text: as §7

[16] = test system: Jacquemontia tamnifolia (smallflower morningglory, IAQTA); test: Field trial, % visual weed control; assay type: in vivo; conditions: 7DAA, 1065 g ae/ha alone
From the text: as §7

[17] = test system: Raphanus raphanistrim (wild radish, RAPRA); test: Field trial, % visual weed control; assay type: in vivo; conditions: 6DAA, 780 g ae/ha alone
From the text: as §7

[18] = test system: Sesbania exaltata (hemp sesbania, SEBEX); test: Field trial, % visual weed control; assay type: in vivo; conditions: 8DAA, 800 g ae/ha alone
From the text: as §7

[19] = test system: Spermacoce latifolia (broadleaf buttonweed, BOILF); test: Field trial, % visual weed control; assay type: in vivo
From the text: as §7

[20] = test system: Tridax procumbens L (tridax daisy, TRQPR); test: Field trial, % visual weed control; assay type: in vivo; conditions: 16DAA, 780 g ae/ha alone
From the text: as §7

O=C(O)COc1ccc(Cl)cc1Cl [2,4-D-Choline, 2-hydroxy-N,N,N-trimethylethanaminium 2-(2,4-dichlorophenoxyl)acetate]
Mean % Weed Control ([1]; 100 g ae/ha alone): 28.3%
Mean % Weed Control ([1]; 200 g ae/ha alone): 46.7%
Mean % Weed Control ([1]; 400 g ae/ha alone): 73.3%
Mean % Weed Control ([1]; 800 g ae/ha alone): 88.3%
Mean % Weed Control [2]: 25.0%
Mean % Weed Control ([3]; 100 g ae/ha alone): 5.0%
Mean % Weed Control ([3]; 200 g ae/ha alone): 61.7%
Mean % Weed Control ([3]; 400 g ae/ha alone): 75.0%
Mean % Weed Control [4]: 0.0%
Mean % Weed Control ([5]; 6DAA, 720 g ae/ha alone): 5.0%
Mean % Weed Control ([5]; 6DAA, 1080 g ae/ha alone): 5.0%
Mean % Weed Control ([5]; 7DAA, 780 g ae/ha alone): 5.0% and 12.5%
Mean % Weed Control ([5]; 10DAA, 780 g ae/ha alone): 46.3%
Mean % Weed Control ([5]; 20DAA, 780 g ae/ha alone): 34.5%
Mean % Weed Control ([5]; 21DAA, 780 g ae/ha alone): 38.8%
Mean % Weed Control ([5]; 31DAA, 780 g ae/ha alone): 53.8%
Mean % Weed Control ([5]; 36DAA, 780 g ae/ha alone): 27.5% and 17.5%
Mean % Weed Control ([6]; 10DAA, 360 g ae/ha alone): 11.7%
Mean % Weed Control ([6]; 10DAA, 720 g ae/ha alone): 15%
Mean % Weed Control ([6]; 14DAA, 800 g ae/ha alone): 58.8%
Mean % Weed Control ([6]; 15DAA, 360 g ae/ha alone): 16.7%
Mean % Weed Control ([6]; 15DAA, 720 g ae/ha alone): 21.7%
Mean % Weed Control ([6]; 21DAA, 800 g ae/ha alone): 66.3%
Mean % Weed Control ([6]; 28DAA, 800 g ae/ha alone): 50.0%
Mean % Weed Control ([6]; 31DAA, 360 g ae/ha alone): 25%
Mean % Weed Control ([6]; 31DAA, 720 g ae/ha alone): 40%
Mean % Weed Control [7]: 81.3%
Mean % Weed Control ([8]; 7DAA, 800 g ae/ha alone): 47.5%
Mean % Weed Control ([8]; 13DAA, 1065 g ae/ha alone): 45.0%
Mean % Weed Control ([8]; 21DAA, 1065 g ae/ha alone): 38.8%
Mean % Weed Control [9]: 7.5%
Mean % Weed Control ([10]; 12DAA): 70.0%
Mean % Weed Control ([10]; 15DAA): 68.8% and 66.3%
Mean % Weed Control ([10]; 18DAA): 43.8%
Mean % Weed Control ([10]; 27DAA): 66.3%
Mean % Weed Control ([10]; 28DAA): 67.5%
Mean % Weed Control ([10]; 35DAA): 70.0%
Mean % Weed Control [11]: 65.0%
Mean % Weed Control ([12]; 7DAA, 780 g ae/ha alone): 13.8%
Mean % Weed Control ([12]; 18DAA, 780 g ae/ha alone): 36.3%
Mean % Weed Control ([12]; 21DAA, 780 g ae/ha alone): 0.0%
Mean % Weed Control ([12]; 24DAA, 480 g ae/ha alone): 21.7%
Mean % Weed Control ([13]; 7DAA, 960 g ae/ha alone): 50.0%
Mean % Weed Control ([13]; 16DAA, 456 g ae/ha alone): 48.8%
Mean % Weed Control ([13]; 28DAA, 480 g ae/ha alone): 58.8%
Mean % Weed Control ([13]; 28DAA, 960 g ae/ha alone): 67.5%
Mean % Weed Control ([13]; 30DAA, 456 g ae/ha alone): 60.0%
Mean % Weed Control [14]: 98.0%
Mean % Weed Control [15]: 80.0%
Mean % Weed Control [16]: 80.0%
Mean % Weed Control [17]: 80.0%
Mean % Weed Control [18]: 32.5%
Mean % Weed Control ([19]; 18DAA, 780 g ae/ha alone): 37.5%
Mean % Weed Control ([19]; 21DAA, 780 g ae/ha alone): 63.8%
Mean % Weed Control ([19]; 24DAA, 480 g ae/ha alone): 30.0%
Mean % Weed Control ([19]; 27DAA, 780 g ae/ha alone): 67.5%
Mean % Weed Control ([19]; 28DAA, 780 g ae/ha alone): 68.8%
Mean % Weed Control [20]: 12.5%

From patent US20150173371A1 (Dow AgroSciences LLC, priority 2013, published 2015)
